In PubChem BioAssay (NCI) one finds GI50 and TGI data, which are given here for six compounds.

Structures are written as SMILES.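 Growth conditions: 96-well plates. Treatment: test compound, 48 hours, 5 concentrations. Analysis: linear interpolation between bracketing concentrations; unreached endpoints set to highest concentration. Abbreviation: GI50, concentration required for 50% inhibition of growth. TGI denotes the concentration required for complete inhibition of growth.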 Bounds are passed on as bounds.

Among the test systems are MALME-3M melanoma; T-47D breast; SR leukemia; SNB-19 CNS; TK-10 renal; HT29 colon; SN12C renal; SK-OV-3 ovarian; HS 578T breast; 786-0 renal.
Holding throughout (assay): NCI anticancer screen, dose series, 48 h

Turning to `Nc1ccccc1C#C/C=C\C#Cc1cccc(O)c1`, the GI50 with MALME-3M melanoma was 11.3 µM; with T-47D breast, 7.3 µM; with SR leukemia, 1.55 µM; in the test with SNB-19 CNS it was 17.1 µM; in the test on TK-10 renal, 8.73 µM; in the test on HT29 colon it was 11.4 µM. For the same compound, the GI50 with SN12C renal is 2.66 µM; in the test on SK-OV-3 ovarian, 3.03 µM; in the test on HS 578T breast, 3.39 µM; in the test with 786-0 renal it was 3.89 µM. The TGI with MALME-3M melanoma is greater than 43.4 µM; in the test with T-47D breast, greater than 60.8 µM; with SR leukemia, 6.13 µM; with SNB-19 CNS, greater than 55.7 µM; with TK-10 renal, 29.7 µM; in the test with HT29 colon it was 41.7 µM. In addition, the TGI came to 19.6 µM in the test with SN12C renal, 19.8 µM in the test on SK-OV-3 ovarian, 22.8 µM in the test with HS 578T breast and 15.3 µM in the test with 786-0 renal.
For the compound `Cc1ccc(C(=O)NC2CCC2)cc1-c1ccc(C(=O)NCC2CC2)cc1`, the GI50 with MALME-3M melanoma was greater than 25 µM; in the test with T-47D breast, 12.9 µM; with SR leukemia it was greater than 25 µM; in the test on SNB-19 CNS, greater than 25 µM; in the test with TK-10 renal, greater than 25 µM; in the test on HT29 colon, greater than 25 µM. Moreover, the GI50 with SN12C renal, in the test with SK-OV-3 ovarian, in the test with HS 578T breast and with 786-0 renal was greater than 25 µM throughout. Also, the TGI with MALME-3M melanoma, in the test on T-47D breast, in the test with SR leukemia, in the test on SNB-19 CNS, in the test on TK-10 renal and in the test with HT29 colon was greater than 25 µM throughout. The TGI in the test with SN12C renal, in the test with SK-OV-3 ovarian, with HS 578T breast and in the test with 786-0 renal was greater than 25 µM throughout.
As for `COC(=O)c1cc2ccccc2c2c3c(ccc12)OCO3`, the GI50 with MALME-3M melanoma is 76.6 µM; in the test on T-47D breast, 44.2 µM; in the test with SR leukemia, 167 µM; in the test with SNB-19 CNS, 73 µM; with TK-10 renal, 43.8 µM; in the test on HT29 colon it was 33.7 µM. The GI50 in the test on SN12C renal is 205 µM; in the test with SK-OV-3 ovarian it was 45.8 µM; with HS 578T breast it was 36.4 µM; with 786-0 renal, 56.1 µM. The TGI in the test on MALME-3M melanoma is 483 µM; with T-47D breast it was greater than 1000 µM; in the test with SR leukemia it was greater than 1000 µM; in the test on SNB-19 CNS, 990 µM; in the test on TK-10 renal, 325 µM; in the test on HT29 colon it was greater than 1000 µM. The TGI in the test on SN12C renal was greater than 1000 µM; in the test on SK-OV-3 ovarian it was 357 µM; in the test with HS 578T breast it was 247 µM; in the test on 786-0 renal, 477 µM.
Consider `CN(C)c1ccc(C(=NO)c2ccc(N(C)C)cc2)cc1`, for which the GI50 with MALME-3M melanoma is 2.63 µM; in the test on T-47D breast, 5.59 µM; in the test on SR leukemia, 0.32 µM; in the test with SNB-19 CNS, 4.04 µM; in the test on TK-10 renal, 7.47 µM; with HT29 colon it was 3.6 µM. The GI50 with SN12C renal is 4.94 µM; with SK-OV-3 ovarian it was 3.57 µM; with HS 578T breast, 7.39 µM; in the test on 786-0 renal, 7.49 µM. Besides, the TGI in the test with MALME-3M melanoma was greater than 100 µM; with T-47D breast it was greater than 100 µM; in the test with SR leukemia, greater than 100 µM; in the test with SNB-19 CNS it was greater than 100 µM; in the test with TK-10 renal, 98.6 µM; with HT29 colon it was greater than 100 µM. Further, the TGI in the test with SN12C renal, in the test with SK-OV-3 ovarian, in the test with HS 578T breast and in the test on 786-0 renal was greater than 100 µM in each case.
In the case of `CC(C)(C)c1[nH]nc2c1C(c1cc3ccccc3[nH]c1=O)Nc1cc(C(=O)OCc3ccccc3)ccc1N2` (stereo not drawn), the GI50 is 2.49 µM in the test with MALME-3M melanoma; 4.08 µM with T-47D breast; 3.52 µM with SR leukemia; 3.28 µM in the test on SNB-19 CNS; 3.83 µM with TK-10 renal; 2.75 µM in the test on HT29 colon. Also, the GI50 is 3.77 µM in the test on SN12C renal, 3.27 µM in the test on SK-OV-3 ovarian, 7.45 µM in the test on HS 578T breast and 3.41 µM in the test with 786-0 renal. Moreover, the TGI with MALME-3M melanoma is 7.47 µM; with T-47D breast it was greater than 100 µM; with SR leukemia, greater than 100 µM; with SNB-19 CNS, greater than 100 µM; in the test on TK-10 renal, 19.6 µM; with HT29 colon it was 6.52 µM. Moreover, the TGI is greater than 100 µM with SN12C renal, 8.73 µM in the test on SK-OV-3 ovarian, greater than 100 µM in the test with HS 578T breast and greater than 100 µM in the test with 786-0 renal.
In the case of `COc1ccc(C(=O)/C=C/c2cccc(Nc3ccnc4cc(Cl)ccc34)c2)cc1`, the GI50 with MALME-3M melanoma was 1.79 µM; with T-47D breast it was 0.655 µM; in the test on SR leukemia, 0.491 µM; in the test with SNB-19 CNS, 2.26 µM; in the test on TK-10 renal it was 1.64 µM; in the test with HT29 colon, 1.64 µM. The GI50 was 2.22 µM in the test with SK-OV-3 ovarian, 3.18 µM with HS 578T breast and 1.48 µM with 786-0 renal. Further, the TGI in the test with MALME-3M melanoma was 6.3 µM; in the test on T-47D breast, 4.64 µM; with SR leukemia, 3.77 µM; with SNB-19 CNS, greater than 100 µM; in the test on TK-10 renal, 4.59 µM; with HT29 colon it was greater than 100 µM. Moreover, the TGI in the test with SK-OV-3 ovarian is 7.98 µM; with HS 578T breast, greater than 100 µM; in the test with 786-0 renal, 4.27 µM.
